Format in all cases: in vivo
Assay [1] concerns larvae of the banded cucumber beetle (Diabrotica balteata). Briefly: Diabrotica balteata spray test. As to conditions: 168 h, 100 g/ha (=32 μg/well), after 7 days, wheat seeds, read-out: efficacy (seedling growth). How it is done:
Diabrotica balteata—Spray Test
(§1) • Solvent: 78.0 parts by weight of acetone • 1.5 parts by weight of dimethylformamide • Emulsifier: alkylarylpolyglycol ether
(§2) To produce a suitable preparation of active compound, 1 part by weight of active compound is mixed with the stated amount of solvent, and the concentrate is diluted with water, containing an emulsifier concentration of 1000 ppm, to the desired concentration. Further test concentrations are prepared by dilution with emulsifier containing water.
Soaked wheat seeds (Triticum aestivum) are placed in a multiple well plate filled with agar and some water and are incubated for 1 day to germinate (5 seeds per well). The germinated wheat seeds are sprayed with a test solution containing the desired concentration of the active ingredient. Afterwards each unit is infected with 10-20 larvae of the banded cucumber beetle (Diabrotica balteata).
After 7 days efficacy in % is determined. 100% means all the seedlings have grown up like in the untreated, uninfected control; 0% means none of the seedlings have grown.

Assay [2] relates to adult engorged female ticks (Rhipicephalus microplus). Briefly: Rhipicephalus (Boophilus) microplus injection test. As to conditions: 168 h, egg deposition monitored after 7 days, read-out: efficacy (infertile eggs); for pest or weed control at 4 µg/tick: 4 μg/tick injected; for pest or weed control at 20 µg/tick: 20 μg/tick injected. How it is done: Rhipicephalus (Boophilus) microplus—Iniectiontest
• Solvent: dimethyl sulfoxide
To produce a suitable preparation of active compound, 10 mg of active compound are dissolved in 0.5 mL solvent, and the concentrate is diluted with solvent to the desired concentration.
Five adult engorged female ticks (Rhipicephalus microplus) are injected with 1 μL compound solution into the abdomen. The ticks are transferred into replica plates and incubated in a climate chamber.
After 7 days egg deposition of fertile eggs is monitored. Eggs where fertility is not visible are stored in a climate chamber till hatching after about 42 days. An efficacy of 100% means all eggs are infertile; 0% means all eggs are fertile.

Assay [3] has as its system fall armyworm larvae (Spodoptera frugiperda). Briefly: Spodoptera frugiperda spray test. Conditions: in Zea mays, 168 h. The procedure:
Spodoptera frugiperda—Spray Test
• Solvent: 78.0 parts by weight acetone • 1.5 parts by weight dimethylformamide • Emulsifier: alkylarylpolyglycol ether
To produce a suitable preparation of active compound, 1 part by weight of active compound is mixed with the stated amount of solvents and is diluted with water, containing an emulsifier concentration of 1000 ppm, to the desired concentration. Further test concentrations are prepared by dilution with emulsifier containing water.
Maize (Zea mays) leaf sections are sprayed with a preparation of the active ingredient of the desired concentration. Once dry, the leaf sections are infested with fall armyworm larvae (Spodoptera frugiperda). After 7 days mortality in % is determined. 100% means all caterpillars have been killed and 0% means none of the caterpillars have been killed.

Assay [4] has as its system larvae of the southern green stink bug (Nezara viridula). Briefly: Nezara viridula spray test. Conditions: 96 h, after 4 days, barley plants. How it is done: Nezara viridula—Spray Test
as §1, §2
Barley plants (Hordeum vulgare) are sprayed with a test solution containing the desired concentration of the active ingredient and are infested with larvae of the southern green stink bug (Nezara viridula).
After 4 days mortality in % is determined. 100% means all the stink bugs have been killed; 0% means none of the stink bugs have been killed.

Structures are written as SMILES.

Regarding `C[C@H](NC(=O)c1cc(Cl)cc(CC#N)c1)c1ncnn1-c1ncc(C#N)s1` [Example I-50], in assay [1], the pest or weed control at 32 µg/disc, 100 g/ha was 100%.

Regarding `Cc1nc([C@H](C)NC(=O)c2cc(OC(C)c3cccc(Cl)c3)cc(C(F)(F)F)c2)n(-c2ccc(C#N)cn2)n1` (stereo partly drawn) [Example I-12, 3-[1-(3-Chlorophenyl)ethoxy]-N-{(1S)-1-[1-(5-cyanopyridin-2-yl)-3-methyl-1H-1,2,4-triazol-5-yl]ethyl}-5-(trifluoromethyl)benzamide], in assay [2], the pest or weed control at 4 µg/tick amounted to 100% and the pest or weed control at 20 µg/tick is 100%.

For the compound `Cc1nc([C@H](C)NC(=O)c2cc(Br)cc(C(F)(F)c3ccc(F)cc3)c2)n(-c2ncc(C#N)s2)n1` [Example I-79], in assay [1], the pest or weed control at 32 µg/disc, 100 g/ha was found to be 100%. The mortality at 100 g/ha in assay [3] was 100%. Turning to `Cc1nc([C@H](C)NC(=O)c2cc(Cl)cc(C(=O)C3CC3)c2)n(-c2ncc(C#N)s2)n1` [Example I-82], the pest or weed control at 32 µg/disc, 100 g/ha in assay [1] stood at 100%. The compound also returned a mortality at 100 g/ha in assay [3] of 100%. For `C[C@H](NC(=O)c1cc(OC(C)(C)C#N)cc(C2CC2)c1)c1ncnn1-c1cc(C#N)ncn1` [Example I-92], the mortality at 100 g/ha in assay [3] stood at 100%.

Regarding `C[C@H](NC(=O)c1cc(Br)cc(OC2CC2)c1)c1ncnn1-c1ncc(C#N)s1` [Example I-49], the pest or weed control at 32 µg/disc, 100 g/ha in assay [1] worked out at 100%. This compound had a mortality at 100 g/ha in assay [3] of 100%.

On to `C[C@H](NC(=O)c1cc(Cl)cc(C(=O)C2CC2)c1)c1ncnn1-c1cc(C#N)ncn1` [Example I-81], for which the pest or weed control at 32 µg/disc, 100 g/ha in assay [1] was 100%. Moreover, the mortality at 100 g/ha in assay [3] was 100%.

On to `Cc1nc([C@H](C)NC(=O)c2cc(OCc3ccccc3)cc(C(F)(F)F)c2)n(-c2ccc(C#N)cn2)n1` [Example I-18, 3-(Benzyloxy)-N-{(1S)-1-[1-(5-cyanopyridin-2-yl)-3-methyl-1H-1,2,4-triazol-5-yl]ethyl}-5-(trifluoromethyl)benzamide], for which, in assay [2], the pest or weed control at 4 µg/tick was found to be 100%. Besides, in assay [1], the pest or weed control at 32 µg/disc, 100 g/ha came out at 100%. Take `CC(=O)Oc1cc(Cl)cc(C(=O)N[C@@H](C)c2ncnn2-c2ccc(C#N)cn2)c1` [Example I-11]: in assay [2], the pest or weed control at 4 µg/tick is 80% and the pest or weed control at 20 µg/tick was 80%.

As to `C[C@H](NC(=O)c1cc(Cl)nc(C(C)(C)C#N)c1)c1nc(C2CC2)nn1-c1ncc(C#N)s1` [Example I-69], in assay [1], the pest or weed control at 32 µg/disc, 100 g/ha amounted to 100%. The mortality at 100 g/ha in assay [3] was 100%. As to `C[C@H](NC(=O)c1cc(Br)cc(C(F)(F)c2ccc(F)cc2)c1)c1ncnn1-c1ncc(C#N)s1` [Example I-78], the pest or weed control at 32 µg/disc, 100 g/ha in assay [1] was 100%. In assay [3], this compound had a mortality at 100 g/ha of 100%. Turning to `C[C@H](NC(=O)c1cc(Br)cc(OCC2CC2(Cl)Cl)c1)c1ncnn1-c1ncc(C#N)s1` (stereo partly shown) [Example I-62], the pest or weed control at 32 µg/disc, 100 g/ha in assay [1] was found to be 100%. With `Cc1nc([C@H](C)NC(=O)c2cc(OC3CC3)cc(OC(F)(F)F)c2)n(-c2ncc(C#N)s2)n1` [Example I-88], in assay [1], the pest or weed control at 32 µg/disc, 100 g/ha was determined as 100%. In addition, the mortality at 100 g/ha in assay [3] stood at 100%. In assay [3], `C[C@H](NC(=O)c1cc(Br)cc(OC(C)(C)C#N)c1)c1ncnn1-c1cnc(C#N)cn1` [Example I-84] returned a mortality at 100 g/ha of 100%. Consider `C[C@H](NC(=O)c1cc(OC2CC2)cc(OC(F)(F)F)c1)c1ncnn1-c1cc(C#N)ncn1` [Example I-87], for which the pest or weed control at 32 µg/disc, 100 g/ha in assay [1] is 80%. This compound also had a mortality at 100 g/ha in assay [3] of 100%.

With `C[C@H](NC(=O)c1cc(Br)cc(OCC2CC2(F)F)c1)c1ncnn1-c1ncc(C#N)s1` (stereo partly shown) [Example I-63], in assay [1], the pest or weed control at 32 µg/disc, 100 g/ha worked out at 100%.

Consider `C[C@H](NC(=O)c1cc(Br)cc(C(F)(F)c2ccc(F)cc2)c1)c1ncnn1-c1cc(C#N)ncn1` [Example I-80], for which the pest or weed control at 32 µg/disc, 100 g/ha in assay [1] came to 100%. This compound also showed a mortality at 100 g/ha in assay [3] of 100%.

For the compound `Cc1nc([C@H](C)NC(=O)c2cc(OCc3ccccc3Cl)cc(C(F)(F)F)c2)n(-c2ccc(C#N)cn2)n1` [Example I-16, 3-[(2-Chlorobenzyl)oxy]-N-{(1S)-1-[1-(5-cyanopyridin-2-yl)-3-methyl-1H-1,2,4-triazol-5-yl]ethyl}(trifluoromethyl)benzamide], in assay [2], the pest or weed control at 4 µg/tick was determined as 100% and the pest or weed control at 20 µg/tick came to 100%. For the compound `Cc1nc([C@H](C)NC(=O)c2cc(OC(C)(C)C#N)cc(C3CC3)c2)n(-c2ncc(C#N)s2)n1` [Example I-90], the pest or weed control at 32 µg/disc, 100 g/ha in assay [1] stood at 100%. Consider `C[C@H](NC(=O)c1cc(Cl)cc(C(=O)C2CC2)c1)c1ncnn1-c1ncc(C#N)s1` [Example I-83], for which the pest or weed control at 32 µg/disc, 100 g/ha in assay [1] was 100%. In assay [3], this compound yielded a mortality at 100 g/ha of 100%. Consider `C[C@H](NC(=O)c1cc(OC(F)(F)F)cc(C(C)(C)C#N)c1)c1nc(C2CC2)nn1-c1ncc(C#N)s1` [Example I-67], for which the pest or weed control at 32 µg/disc, 100 g/ha in assay [1] was 100%. This compound also came in with a mortality at 100 g/ha in assay [3] of 100%. As to `C[C@H](NC(=O)c1cc(OC(F)(F)F)cc(C(C)(C)C#N)c1)c1nc(C2CC2)nn1-c1cc(C#N)ncn1` [Example I-76], the pest or weed control at 32 µg/disc, 100 g/ha in assay [1] was 100%. In assay [3], this compound returned a mortality at 100 g/ha of 100%.

For `Cc1nc([C@H](C)NC(=O)c2cc(OCc3ccc(Cl)cc3)cc(C(F)(F)F)c2)n(-c2ccc(C#N)cn2)n1` [Example I-20, 3-[(4-Chlorobenzyl)oxy]-N-{(1S)-1-[1-(5-cyanopyridin-2-yl)-3-methyl-1H-1,2,4-triazol-5-yl]ethyl}-5-(trifluoromethyl)benzamide], the pest or weed control at 4 µg/tick in assay [2] was determined as 100%. Compound `C[C@H](NC(=O)c1cc(Br)cc(OC(C)(C)C#N)c1)c1ncnn1-c1cc(C#N)ncn1` [Example I-85] yielded a mortality at 100 g/ha in assay [3] of 100%.

With `Cc1nc([C@H](C)NC(=O)c2cc(OC(C)c3ccccc3Cl)cc(C(F)(F)F)c2)n(-c2ccc(C#N)cn2)n1` (stereo partly drawn) [Example I-14, 3-[1-(2-Chlorophenyl)ethoxy]-N-{(1S)-1-[1-(5-cyanopyridin-2-yl)-3-methyl-1H-1,2,4-triazol-5-yl]ethyl}-5-(trifluoromethyl)benzamide], in assay [2], the pest or weed control at 4 µg/tick stood at 100% and the pest or weed control at 20 µg/tick was 100%. In the case of `C[C@H](NC(=O)c1cc(C(C)(C)C#N)cc(S(C)(=O)=O)c1)c1ncnn1-c1ncc(C#N)s1` [Example I-55], the results for the mortality at 100 g/ha in assay [4] (100 g/ha) and in assay [3] were 90% and 100%, respectively. In assay [4] (500 g/ha), the mortality at 500 g/ha was 90%. For `C[C@H](NC(=O)c1cc(C(C)(C)C#N)cc(S(C)(=O)=O)c1)c1nc(C2CC2)nn1-c1ncc(C#N)s1` [Example I-93], the pest or weed control at 32 µg/disc, 100 g/ha in assay [1] was found to be 80%. Further, in assay [3], the mortality at 100 g/ha amounted to 100%.

As to `Cc1nc([C@H](C)NC(=O)c2cc(O)cc(C(F)(F)F)c2)n(-c2ccc(C#N)cn2)n1` [Example I-47, N-{(1S)-1-[1-(5-Cyanopyridin-2-yl)-3-methyl-1H-1,2,4-triazol-5-yl]ethyl}-3-hydroxy-5-(trifluoromethyl)benzamide], in assay [2], the pest or weed control at 4 µg/tick was determined as 100% and the pest or weed control at 20 µg/tick came out at 100%. In the case of `C[C@H](NC(=O)c1cc(OC2CC2)cc(OC(F)(F)F)c1)c1ncnn1-c1cnc(C#N)cn1` [Example I-86], the pest or weed control at 32 µg/disc, 100 g/ha in assay [1] is 100%. The same compound returned a mortality at 100 g/ha in assay [3] of 100%. As to `C[C@H](NC(=O)c1cc(Br)cc(C(F)(F)c2ccc(F)cc2)c1)c1ncnn1-c1cnc(C#N)cn1` [Example I-77], the pest or weed control at 32 µg/disc, 100 g/ha in assay [1] was found to be 100%. The mortality at 100 g/ha in assay [3] is 100%. Turning to `C[C@H](NC(=O)c1cc(CC#N)cc(OC(F)(F)F)c1)c1ncnn1-c1cnc(C#N)cn1` [Example I-57], in assay [3], the mortality at 100 g/ha was 100%. On to `Cc1nc([C@H](C)NC(=O)c2cc(OCc3cccc(Cl)c3)cc(C(F)(F)F)c2)n(-c2ccc(C#N)cn2)n1` [Example I-13, 3-[(3-Chlorobenzyl)oxy]-N-{(1S)-1-[1-(5-cyanopyridin-2-yl)-3-methyl-1H-1,2,4-triazol-5-yl]ethyl}-5-(trifluoromethyl)benzamide], for which, in assay [2], the pest or weed control at 4 µg/tick is 80% and the pest or weed control at 20 µg/tick was found to be 100%. Moreover, the pest or weed control at 32 µg/disc, 100 g/ha in assay [1] is 100%. Consider `C[C@H](NC(=O)c1cc(OC(C)(C)C#N)cc(C2CC2)c1)c1ncnn1-c1ncc(C#N)s1` [Example I-89], for which the pest or weed control at 32 µg/disc, 100 g/ha in assay [1] is 100%.

By mortality is commonly meant the share of the test organisms that died. Higher therefore signals fewer survivors.

(Values after patent US12653190B2, “Heteroaryl-triazole compounds as pesticides” (Bayer Aktiengesellschaft, priority 2020, dated 2026).)
